“Also recorded” adds a separate entry of the source.
Columns and labels:
SPF Wistar/AF male rats [1] = experiment: Conditioned Defensive Burying test, overall stress score; assay type: in vivo, rat; settings: for overall stress score during test 2: test 2 on day 8, 6 hours after administration (diazepam 3 mg/kg p.o. daily, 1 hour before test); for overall stress score: 5 ml/kg p.o. daily for 6 days
Protocol: The anxiolytic effect is evaluated using the Conditioned Defensive Burying model, which was developed from the procedure by J. P. PINEL and D. TREIT (PINEL and TREIT, J. Comp. & Physiol. Psychol., 92, 708-712, 1978; TREIT et al., Pharmacol. Biochem. Behav., 15, 619-626, 1981). This model uses the natural propensity of most rodents to bury themselves from a stressful source of stimulus (TREIT, Pharmacol. Biochem. Behav., 22, 1, 47-52, 1985; MEERT and COLPAERT, Psychopharmacology, 88, 445-450, 1986; CRAFT et al., Pharmacol. Biochem. Behav., 30, 3, 775-780, 1988; TREIT, Pharmacol. Biochem. Behav., 36, 203-205, 1990).
Seventy two SPF Wistar/AF male rats (IFFA-CREDO breeding center, 69—St-Germain sur l'Arbresle, France) weighing 320 to 340 g were used. On reception, the rats were weighed, marked and divided into groups of 4 in type F polycarbonate cages (48×27×20 cm, U.A.R., 91—Epinay-Sur-Orge, France). The animals were stalled in an air-conditioned animal house, at a temperature of 22-24° C. Food (M25 biscuits, Ets […], 77—Provins, France) and drink were available to the rats ad libitum. They were subjected to a light-darkness cycle of 12 hours (light from 24 h to 12 h).
After a week's familiarization with the laboratory conditions, the 72 rats were randomly divided into 6 groups (n=12). The rats in the different groups were all handled in the same way and under the same conditions.
Habituation and the tests were carried out in a transparent cage having the dimensions 44×28×18 cm, whose base is covered with sawdust over a thickness of 5 cm. In the middle of a lateral face, an orifice allows the attachment of an electric probe, 2 cm above the level of the sawdust.
It is a probe made of plexiglas having the dimensions 7×2×0.5 cm, covered with a copper printed circuit in which the gap between the wires is 1 mm, chosen so that one leg of the rat coming to rest on the probe easily makes contact between them, thus allowing the passage of current.
The probe is connected to a manually triggered generator of electric shocks of 0 to 8 mA (OPEN-SYSTEMS, 54—Maxeville, France).
In the faintly illuminated experimental room, a video camera was placed in front of the cage of the setup, at a distance of one meter. The camera is connected to a video recorder and to a control monitor, which are placed in an adjacent room with the electric shock generator.
The experiment was carried out according to a double blind design.
During the 2 days preceding the first test, the rats were transported from the animal house to the experimental room and introduced into the experimental device in order to habituate them to both the handling and to the cage of the device in the absence of the electrode. Each group of 4 rats was placed in the device for 20 minutes. The sawdust is changed, leveled to a uniform height of 5 cm, before the period of habituation of each of the groups.
The electric probe is inserted into the cage before the beginning of the first test. Each rat is placed in the experimental cage on the side opposite the probe.
During the first test (test 1), a single electric shock, of low intensity (2 mA) is delivered to the animal when it places a hind leg for the first time on the probe.
Following the electric shock, the behavior of each rat is recorded for 5 minutes. […] The probe is cleaned after each rat and the sawdust is changed and leveled to a uniform height of 5 cm before the test session for each cage of rats.
The products L, 3ST, 3S and 3S+P were orally administered daily at the same times, at the doses of 5 ml/kg by means of syringes provided with intragastric forced-feeding probes (HARVARD APPARATUS, 91—Les Ulis, France). The burying tests (test 1 on day 6 and test 2 on day 8) were carried out 6 hours after the administration of the products.
The positive control is diazepam (3 mg/kg), which was suspended in an aqueous solution of methyl cellulose at 1% and was orally administered daily, for the same period. […]

SPF Wistar/AF male rats [2] = experiment: Sedative effect (locomotive and exploratory activity) during the Conditioned Defensive Burying test; assay type: in vivo, rat; settings: Example 2; test 1 on day 6; 5 ml/kg p.o. daily (diazepam 3 mg/kg p.o.)
Protocol: The tests were carried out according to the protocol described in example 2 above, on one hundred and fifty eight SPF Wistar/AF males (IFFA-CREDO breeding center, 69—St Germain sur Arbresles, France) weighing 260 to 280 g. After a week's familiarization with the laboratory conditions, the rats were randomly divided into 13 treatment groups. The rats of the various groups were handled in the same manner and under the same conditions.
All the products were orally administered daily for 6 days at the same times at the doses of 5 ml/kg using syringes equipped with intragastric forced-feeding probes (HARVARD APPARATUS, 91—Les Ulis, France). On the day for the test, they were administered 6 hours before the burying test.
number of […]: the rat adopts the vertical position while resting on its hind legs;
number of passes from one side of the cage to another.

CN1C(=O)CN=C(c2ccccc2)c2cc(Cl)ccc21 [diazepam]
overall stress score during test 1 (SPF Wistar/AF male rats [1]; Example 2, 5 ml/kg p.o. daily, test 1 on day 6, 6 hours after administration (diazepam 3 mg/kg p.o. daily, 1 hour before test), vs. control product L): tends to reduce the overall stress score; also recorded: showed only a trend to reduce the overall stress score
overall stress score during test 2 (SPF Wistar/AF male rats [1]; Example 2, 5 ml/kg p.o. daily, vs. control product L): not significantly different from the product L
overall stress score during test 2 (SPF Wistar/AF male rats [1]; Example 2, 5 ml/kg p.o. daily, vs. control product L, listed as Diazepam): no effect which is statistically different from that of the control
phenomenon of tolerance (habituation) between test 1 and test 2 (SPF Wistar/AF male rats [1]; Example 2, daily oral administration, day 6 vs. day 8): phenomenon of tolerance observed
overall stress score (SPF Wistar/AF male rats [1]; Example 3, last dose 6 hours before test (diazepam 1-3 mg/kg p.o. over 6 days, 1 hour before test), vs. control product L): significantly lower overall stress scores; also recorded: significant antistress activity
overall stress score (SPF Wistar/AF male rats [1]; Example 5, test 1 hour after last dose (diazepam 1-3 mg/kg p.o., 1 hour before test), vs. control product L): significantly lower than that of the control product L
sedative effect during test 1 (SPF Wistar/AF male rats [2]): sedative effect

Reference: patent US6541027B1, “Lactic acid bacteria with anxiolytic properties and uses thereof” (Compagnie Gervais Danone, priority 1999, dated 2003)
